≈ marks a conversion by molar mass, not a printed value. Where two headings read alike, the source gives them in different places.
Experiments:
[1] = test system: H2052 cells; experiment: MTT cytotoxicity assay on mesothelioma cell line H2052; details: Homo sapiens, NCI-H2052, 48 h, read-out: Normalized IC50
[2] = test system: H28 cells; experiment: MTT cytotoxicity assay on mesothelioma cell line H28; details: Homo sapiens, NCI-H28, 48 h, read-out: Normalized IC50
[3] = test system: human mesothelioma H2052 cells; details: for average luminescence of tumor zone: weekly, order of magnitude, compared with untreated 1x10^12 on the 100° day
Description: The cell lines of human mesothelioma H2052 were transduced with a lentiviral vector (method by which the genes can be inserted into cells using the lentivirus) containing a bidirectional promoter allowing the high and coordinated expression of two reporter genes for the synthesis of luciferase and eGFP (enhanced Green Fluorescent Protein), as described in Amendola et al., Nat Biotechnol 2005, 23:108-16: luciferase is an enzyme that catalyzes the oxidation of luciferin which oxidizing emits energy ([…]) in the form of light radiation and such reaction has an ultra-high sensitivity; the eGFP derives from the jellyfish Aequorea victoria, and it is capable of emitting bright green light when exposed to certain wavelengths; both such proteins are used below as a “marker system” for human mesothelioma cells H2052 transduced as above, in order to identify the tumor mass that is formed in animals injected with such cells and to determine its dimensions and the growth over time through suitable bioluminescence sensor.
Cells were incubated for 6 hours in a mixture of complete medium (RPMI + 10% FBS, 1% HEPES, L-glutamine and penicillin/streptomycin) containing the above-mentioned vector and protamine sulphate. At the end of 6 hours of incubation, supernatants were re-integrated with complete medium. After 5 days, the effect of the transduction was evaluated through flow cytometry.
Cells were then expanded and sub-divided in order to isolate the population with the higher expression of reporter genes.
All treated animals were monitored through detection of bioluminescence emitted by their tumor zone treated with HA-paclitaxel conjugate, in order to assess over time, the dimension (and therefore the growth) of the tumor with reference to animals untreated with any chemotherapeutic agent and to those treated with non-conjugated paclitaxel.

[4] = test system: H2452 cells; experiment: MTT cytotoxicity assay on mesothelioma cell line H2452; details: Homo sapiens, NCI-H2452, 48 h, read-out: Normalized IC50

Q: How did the IC50 [1] turn out when `CC(=O)O[C@H]1C(=O)[C@@]2(C)[C@H]([C@H](OC(=O)c3ccccc3)[C@]3(O)C[C@H](OC(=O)[C@H](O)[C@@H](NC(=O)c4ccccc4)c4ccccc4)C(C)=C1C3(C)C)[C@]1(OC(C)=O)CO[C@@H]1C[C@@H]2O` [paclitaxel] was run?
A: The IC50 was 0.225 µg/mL (≈ 0.263 µM).

Q: What about the IC50 [2] of the same compound?
A: Its IC50 is 0.787 µg/mL (≈ 0.922 µM).

Q: What about the “average luminescence of tumor zone” value ([3]; 2° sample: 10 mg/Kg iv for 3 treatments then ip) of the same compound?
A: The value was ~1x10^11 Ph/sec.

Q: What about the “average luminescence of tumor zone” value ([3]; 3° sample: 10 mg/Kg ip) of the same compound?
A: Its value is ~1x10^11 Ph/sec.

Q: What about the “bioluminescence emitted by treated tumor zone” value ([3]; non-conjugated paclitaxel 10 mg/Kg, after 139 days of observation (FIG. 2)) of the same compound?
A: The value was “around 12x10^11 Ph/sec”.

Q: And the IC50 [4]?
A: The IC50 was 0.8 µg/mL (≈ 0.937 µM).
